What was measured:
[1] = molecular target: T1, Adenosine 5'-monophosphoramidase HINT1 (Mus musculus, UniProt P70349); experiment: Binding affinity to mouse HINT1 by fluorescence quenching assay
T1 sequence (P70349 whole entry): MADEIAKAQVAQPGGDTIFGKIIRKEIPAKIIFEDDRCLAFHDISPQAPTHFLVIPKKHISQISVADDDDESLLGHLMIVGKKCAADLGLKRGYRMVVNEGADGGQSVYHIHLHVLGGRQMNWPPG

[2] = molecular target: T1, Adenosine 5'-monophosphoramidase HINT1; experiment: Binding affinity to mouse HINT1 by HSQC spectra assay
[3] = molecular target: T1, Adenosine 5'-monophosphoramidase HINT1; experiment: Binding affinity to mouse HINT1 by NMR analysis

Row | Kd [3] [µM] | SMILES | Kd [1] [µM] | Kd [2] [µM]
1 | – | NC(=O)c1ncn([C@@H]2O[C@H](COP(=O)(O)O)[C@@H](O)[C@H]2O)c1N | 1100 | 1200
2 | 60 | Nc1nc2c(ncn2[C@@H]2O[C@H](COP(=O)(O)O)[C@H](O)[C@@H]2O)c(=O)[nH]1 [E626] | 67 | –
